Measured values: patent publication US4471131A, “Novel silyl esters of N-phosphonomethylglycine” (Monsanto Company, priority 1983, dated 1984)

What was measured:
Assay in all cases: post-emergence herbicidal activity, greenhouse
Type in all cases: in vivo
Cocklebur = conditions: Table III; 4 WAT; 5.6 kg/h; formulated in anhydrous tetrahydrofuran
Outline: (§1)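 Injury scores compare treated plants with untreated control pans at roughly 2 and 4 weeks post-spray. Treatment was a single atomizer application, in a solution or suspension with about 0.4% emulsifier by weight, to greenhouse plants aged two to three weeks.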

Sugar Beet = conditions: Table III, formulated in anhydrous tetrahydrofuran
Outline: as §1

Morningglory = test system: Morningglory
Outline: as §1

Wild Buckwheat = conditions: Table III, formulated in anhydrous tetrahydrofuran
Outline: as §1

Barnyardgrass = test system: Barnyardgrass
Outline: as §1

Yellow Nutsedge = conditions: Table II
Outline: (§2)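 Injury versus control pans was recorded at about 2 and 4 weeks post-treatment. Treatment was post-emergence: an atomizer spray holding roughly 0.4% by weight emulsifier and enough candidate chemical for the tabulated rates, applied to two-to-three-week-old plants raised in top-soil pans.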

Quackgrass = conditions: Table II
Outline: as §2

Downy Brome = test system: Downy Brome
Outline: as §1

Pennsylvania Smartweed = test system: Pennsylvania Smartweed
Outline: as §1

[1] = Table II, 2 WAT, 5.6 kg/h, formulated in anhydrous tetrahydrofuran
[2] = Table II, 2 WAT, 11.2 kg/h, formulated in anhydrous tetrahydrofuran
[3] = Table II, 4 WAT, 11.2 kg/h, formulated in anhydrous tetrahydrofuran
[4] = Table III, 2 WAT, 1.1 kg/h, formulated in anhydrous tetrahydrofuran
[5] = Table III, 2 WAT, 5.6 kg/h, formulated in anhydrous tetrahydrofuran
[6] = Table III, 2 WAT, .28 kg/h, formulated in anhydrous tetrahydrofuran
[7] = Table III, 4 WAT, 5.6 kg/h, formulated in anhydrous tetrahydrofuran
[8] = 2 WAT, 5.6 kg/h, formulated in anhydrous tetrahydrofuran
[9] = 2 WAT, 11.2 kg/h, formulated in anhydrous tetrahydrofuran
[10] = 4 WAT, 11.2 kg/h, formulated in anhydrous tetrahydrofuran

CC(C)(C)[Si](OP(=O)(O)CNCC(=O)O)(c1ccccc1)c1ccccc1 [Ex. 5, Glycine, N-((([(1,1-Dimethylethyl)Diphenylsilyl]oxy)-Hydroxyphosphinyl)-Methyl)-,]
1 (25-49% inhibition): Plant Response Index (D) (Morningglory; Table II, 2 WAT, 5.6 kg/h) | Plant Response Index (D) (Morningglory; [1]) | Plant Response Index (D) (Morningglory; Table II, 2 WAT, 11.2 kg/h) | Plant Response Index (D) (Morningglory; [2]) | Plant Response Index (D) (Morningglory; Table II, 4 WAT, 5.6 kg/h) | Plant Response Index (D) (Morningglory; Table II, 4 WAT, 11.2 kg/h) | Plant Response Index (D) (Morningglory; [3]) | Plant Response Index (D) (Morningglory; [5]) | Plant Response Index (Q) (Wild Buckwheat; 2 WAT, 5.6 kg/h) | Plant Response Index (K) (Barnyardgrass; Table II, 2 WAT, 11.2 kg/h) | Plant Response Index (K) (Barnyardgrass; [2]) | Plant Response Index (G) (Yellow Nutsedge; 2 WAT, 11.2 kg/h) | Plant Response Index (G) (Yellow Nutsedge; 4 WAT, 5.6 kg/h) | Plant Response Index (H) (Quackgrass; 4 WAT, 11.2 kg/h) | Plant Response Index (F) (Pennsylvania Smartweed; [5]) | Plant Response Index (F) (Pennsylvania Smartweed; [7])
2 (50-74% inhibition): Plant Response Index (K) (Barnyardgrass; Table II, 4 WAT, 11.2 kg/h) | Plant Response Index (G) (Yellow Nutsedge; 4 WAT, 11.2 kg/h) | Plant Response Index (F) (Pennsylvania Smartweed; Table II, 2 WAT, 11.2 kg/h) | Plant Response Index (F) (Pennsylvania Smartweed; Table II, 4 WAT, 11.2 kg/h)
0 (0-24% inhibition): Plant Response Index (B) (Cocklebur) | Plant Response Index (M) (Sugar Beet; 2 WAT, 1.1 kg/h) | Plant Response Index (M) (Sugar Beet; 2 WAT, 5.6 kg/h) | Plant Response Index (M) (Sugar Beet; 2 WAT, .28 kg/h) | Plant Response Index (M) (Sugar Beet; 4 WAT, 5.6 kg/h) | Plant Response Index (D) (Morningglory; [4]) | Plant Response Index (D) (Morningglory; [6]) | Plant Response Index (D) (Morningglory; [7]) | Plant Response Index (Q) (Wild Buckwheat; 2 WAT, 1.1 kg/h) | Plant Response Index (Q) (Wild Buckwheat; 2 WAT, .28 kg/h) | Plant Response Index (Q) (Wild Buckwheat; 4 WAT, 5.6 kg/h) | Plant Response Index (K) (Barnyardgrass; Table II, 2 WAT, 5.6 kg/h) | Plant Response Index (K) (Barnyardgrass; [1]) | Plant Response Index (K) (Barnyardgrass; Table II, 4 WAT, 5.6 kg/h) | Plant Response Index (K) (Barnyardgrass; [3]) | Plant Response Index (K) (Barnyardgrass; [4]) | Plant Response Index (K) (Barnyardgrass; [5]) | Plant Response Index (K) (Barnyardgrass; [6]) | Plant Response Index (K) (Barnyardgrass; [7]) | Plant Response Index (G) (Yellow Nutsedge; 2 WAT, 5.6 kg/h) | Plant Response Index (G) (Yellow Nutsedge; [8]) | Plant Response Index (G) (Yellow Nutsedge; [9]) | Plant Response Index (G) (Yellow Nutsedge; [10]) | Plant Response Index (H) (Quackgrass; 2 WAT, 5.6 kg/h) | Plant Response Index (H) (Quackgrass; [8]) | Plant Response Index (H) (Quackgrass; 2 WAT, 11.2 kg/h) | Plant Response Index (H) (Quackgrass; [9]) | Plant Response Index (H) (Quackgrass; 4 WAT, 5.6 kg/h) | Plant Response Index (H) (Quackgrass; [10]) | Plant Response Index (J) (Downy Brome; Table II, 2 WAT, 5.6 kg/h) | Plant Response Index (J) (Downy Brome; [1]) | Plant Response Index (J) (Downy Brome; Table II, 2 WAT, 11.2 kg/h) | Plant Response Index (J) (Downy Brome; [2]) | Plant Response Index (J) (Downy Brome; Table II, 4 WAT, 5.6 kg/h) | Plant Response Index (J) (Downy Brome; Table II, 4 WAT, 11.2 kg/h) | Plant Response Index (J) (Downy Brome; [3]) | Plant Response Index (J) (Downy Brome; [4]) | Plant Response Index (J) (Downy Brome; [5]) | Plant Response Index (J) (Downy Brome; [6]) | Plant Response Index (J) (Downy Brome; [7]) | Plant Response Index (F) (Pennsylvania Smartweed; Table II, 2 WAT, 5.6 kg/h) | Plant Response Index (F) (Pennsylvania Smartweed; [1]) | Plant Response Index (F) (Pennsylvania Smartweed; [2]) | Plant Response Index (F) (Pennsylvania Smartweed; Table II, 4 WAT, 5.6 kg/h) | Plant Response Index (F) (Pennsylvania Smartweed; [3]) | Plant Response Index (F) (Pennsylvania Smartweed; [4]) | Plant Response Index (F) (Pennsylvania Smartweed; [6])
